One series concerns the target urease (Canavalia ensiformis, UniProt P07374). Briefly: biochemical. The format is biochemical. The procedure:
The inhibitory potential of the compounds was assessed using a slightly modified indophenol method ([Hina et al., 2023]). In 96-well plates, a mixture consisting of 50 µL urease, 30 µL buffer solution (phosphate buffer, sodium salicylate, sodium nitroprusside, and EDTA, pH 8.0), 10 µL urea substrate (100 mM), and 10 µL of the test compound (1 mM) was subjected to pre-incubation for 10 min at room temperature. Subsequently, an alkali reagent (70 µL) was promptly introduced into each well. Then, 30 min later, the absorbance at 630 nm for all samples was measured using a BioTek ELx800 instrument from BioTek Instruments, Inc., United States. The data were collected for all experiments performed in triplicate, and the percentage of inhibitory activities was assessed utilizing the following formula: Percentage of inhibition=100 – Absorbance of compound/Absorbance of control × 100.

Where two headings read alike, the source gives them in different places.

A word on the IC50: it is the concentration that gives 50% inhibition. What is called melting point is the temperature of the solid-liquid transition.

Sequence of urease (P07374 whole entry, looked up): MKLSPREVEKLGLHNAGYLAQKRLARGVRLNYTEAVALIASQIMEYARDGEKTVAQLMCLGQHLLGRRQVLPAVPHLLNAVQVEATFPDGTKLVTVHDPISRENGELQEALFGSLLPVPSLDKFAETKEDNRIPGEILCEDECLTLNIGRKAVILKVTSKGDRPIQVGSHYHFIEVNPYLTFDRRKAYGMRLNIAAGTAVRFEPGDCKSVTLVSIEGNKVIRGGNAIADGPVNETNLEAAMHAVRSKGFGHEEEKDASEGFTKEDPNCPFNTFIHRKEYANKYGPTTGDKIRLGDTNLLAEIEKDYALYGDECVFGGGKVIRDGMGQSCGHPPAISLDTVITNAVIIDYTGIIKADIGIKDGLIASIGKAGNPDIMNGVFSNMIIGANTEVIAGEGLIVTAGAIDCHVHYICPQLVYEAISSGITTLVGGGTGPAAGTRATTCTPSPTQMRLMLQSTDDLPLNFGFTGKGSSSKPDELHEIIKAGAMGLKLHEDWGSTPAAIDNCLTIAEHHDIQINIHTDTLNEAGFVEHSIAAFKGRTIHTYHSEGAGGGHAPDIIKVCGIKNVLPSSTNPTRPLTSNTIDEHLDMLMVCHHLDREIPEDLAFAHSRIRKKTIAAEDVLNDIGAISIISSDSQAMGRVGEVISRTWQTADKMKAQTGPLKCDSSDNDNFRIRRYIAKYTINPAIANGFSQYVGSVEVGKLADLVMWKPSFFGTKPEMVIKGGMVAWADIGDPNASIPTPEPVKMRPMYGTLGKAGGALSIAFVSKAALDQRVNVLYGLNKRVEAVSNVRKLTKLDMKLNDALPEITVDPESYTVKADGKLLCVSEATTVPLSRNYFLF

Compound `O=C(Nc1cccc(Cl)c1)c1ccc(CSC(=S)N2CCN(c3ncccc3[N+](=O)[O-])CC2)cc1` [Compound 7c, 4-((3-Chlorophenyl)carbamoyl)benzyl 4-(3-nitropyridin-2-yl)piperazine-1-carbodithioate] had a melting point of 140 to 141 °C. Moreover, on urease, the IC50 was determined as 10.8 ± 0.52 µM.

`O=C(CSC(=S)N1CCN(c2ncccc2[N+](=O)[O-])CC1)Nc1cccc([N+](=O)[O-])c1` [Compound 5h, 2-((3-Nitrophenyl)amino)-2-oxoethyl 4-(3-nitropyridin-2-yl)piperazine-1-carbodithioate] registered a melting point of 174 to 175 °C. This compound displayed an IC50 at urease of 27 ± 2.15 µM.

`O=C(Nc1ccc(Br)cc1)c1ccc(CSC(=S)N2CCN(c3ncccc3[N+](=O)[O-])CC2)cc1` [Compound 7f, 4-((4-Bromophenyl)carbamoyl)benzyl 4-(3-nitropyridin-2-yl)piperazine-1-carbodithioate] came in with a melting point of 162 to 164 °C. The same compound came in with an IC50 on urease of 16.8 ± 0.29 µM.

As for `Cc1ccc(NC(=O)c2ccc(CSC(=S)N3CCN(c4ncccc4[N+](=O)[O-])CC3)cc2)cc1` [Compound 7l, 4-(P-tolylcarbamoyl)benzyl 4-(3-nitropyridin-2-yl)piperazine-1-carbodithioate], the melting point was 158 to 160 °C. On urease, this compound registered a half-inhibitory concentration (IC50) of 37.54 ± 0.26 µM.

As for `COc1ccc(NC(=O)c2ccc(CSC(=S)N3CCN(c4ncccc4[N+](=O)[O-])CC3)cc2)cc1` [Compound 7n, 4-((4-Methoxyphenyl)carbamoyl)benzyl 4-(3-nitropyridin-2-yl)piperazine-1-carbodithioate], the melting point fell in the range of 187 to 189 °C. For the same compound, half-maximal inhibition on urease (IC50) required 24 ± 0.27 µM.

On to `COc1ccccc1NC(=O)CSC(=S)N1CCN(c2ncccc2[N+](=O)[O-])CC1` [Compound 5m, 2-((2-Methoxyphenyl)amino)-2-oxoethyl 4-(3-nitropyridin-2-yl)piperazine-1-carbodithioate], for which the IC50 at urease worked out at 8.17 ± 0.37 µM.

Compound `O=C(Nc1ccccc1[N+](=O)[O-])c1ccc(CSC(=S)N2CCN(c3ncccc3[N+](=O)[O-])CC2)cc1` [Compound 7g, 4-((2-Nitrophenyl)carbamoyl)benzyl 4-(3-nitropyridin-2-yl)piperazine-1-carbodithioate] came in with a melting point of 133 to 134 °C. Further, at urease, the midpoint of inhibition, the IC50, lay at 56.89 ± 0.31 µM.

For `O=C(Nc1ccc([N+](=O)[O-])cc1)c1ccc(CSC(=S)N2CCN(c3ncccc3[N+](=O)[O-])CC2)cc1` [Compound 7i, 4-((4-Nitrophenyl)carbamoyl)benzyl 4-(3-nitropyridin-2-yl)piperazine-1-carbodithioate], the IC50 on urease was 10.5 ± 0.34 µM.

Regarding `COc1ccc(NC(=O)CSC(=S)N2CCN(c3ncccc3[N+](=O)[O-])CC2)cc1` [Compound 5n, 2-((4-Methoxyphenyl)amino)-2-oxoethyl 4-(3-nitropyridin-2-yl)piperazine-1-carbodithioate], the melting point lay within 151 to 153 °C. Besides, on urease, the 50% inhibitory concentration (IC50) was found to be 17.8 ± 0.29 µM.

`COc1ccccc1NC(=O)c1ccc(CSC(=S)N2CCN(c3ncccc3[N+](=O)[O-])CC2)cc1` [Compound 7m, 4-((2-Methoxyphenyl)carbamoyl)benzyl 4-(3-nitropyridin-2-yl)piperazine-1-carbodithioate]: the melting point fell in the range of 166 to 167 °C. The IC50 at urease stood at 18.7 ± 0.27 µM.

For `O=C(CSC(=S)N1CCN(c2ncccc2[N+](=O)[O-])CC1)Nc1cccc(Br)c1` [Compound 5e, 2-((3-Bromophenyl)amino)-2-oxoethyl 4-(3-nitropyridin-2-yl)piperazine-1-carbodithioate], the melting point lay in the range of 110 to 112 °C. For the same compound, on urease, the IC50 is 32.53 ± 0.2 µM.

For the compound `O=C(CSC(=S)N1CCN(c2ncccc2[N+](=O)[O-])CC1)Nc1ccccc1` [Compound 5a, 2-Oxo-2-(phenylamino)ethyl 4-(3-nitropyridin-2-yl)piperazine-1-carbodithioate], the melting point was 119 to 120 °C. The same compound had a concentration for half-maximal inhibition (IC50) at urease of 18.7 ± 0.52 µM.

Take `Cc1cccc(NC(=O)CSC(=S)N2CCN(c3ncccc3[N+](=O)[O-])CC2)c1` [Compound 5k, 2-Oxo-2-(m-tolylamino)ethyl 4-(3-nitropyridin-2-yl)piperazine-1-carbodithioate]: the melting point lay within 101 to 103 °C. For the same compound, on urease, the IC50 stood at 18.3 ± 0.17 µM.

Regarding `O=C(CSC(=S)N1CCN(c2ncccc2[N+](=O)[O-])CC1)Nc1ccc(Cl)cc1` [Compound 5d, 2-((4-Chlorophenyl)amino)-2-oxoethyl 4-(3-nitropyridin-2-yl)piperazine-1-carbodithioate], the melting point fell in the range of 143 to 144 °C. Moreover, the half-inhibitory concentration (IC50) on urease was 55.69 ± 0.2 µM.

`O=C(CSC(=S)N1CCN(c2ncccc2[N+](=O)[O-])CC1)Nc1cccc(Cl)c1` [Compound 5c, 2-((3-Chlorophenyl)amino)-2-oxoethyl 4-(3-nitropyridin-2-yl)piperazine-1-carbodithioate] gave a melting point of 121 to 122 °C. Moreover, at urease, the IC50 was 37.33 ± 0.19 µM.

`Cc1cccc(NC(=O)c2ccc(CSC(=S)N3CCN(c4ncccc4[N+](=O)[O-])CC3)cc2)c1` [Compound 7k, 4-(m-Tolylcarbamoyl)benzyl 4-(3-nitropyridin-2-yl)piperazine-1-carbodithioate]: on urease, the IC50 was determined as 10.7 ± 0.26 µM.

As for `O=C(Nc1ccc(Cl)cc1)c1ccc(CSC(=S)N2CCN(c3ncccc3[N+](=O)[O-])CC2)cc1` [Compound 7d, 4-((4-Chlorophenyl)carbamoyl)benzyl 4-(3-nitropyridin-2-yl)piperazine-1-carbodithioate], the melting point lay within 147 to 148 °C. On urease, the IC50 stood at 43.11 ± 0.31 µM.

`Cc1ccccc1NC(=O)c1ccc(CSC(=S)N2CCN(c3ncccc3[N+](=O)[O-])CC2)cc1` [Compound 7j, 4-(o-Tolylcarbamoyl)benzyl 4-(3-nitropyridin-2-yl)piperazine-1-carbodithioate] displayed a melting point of 113 to 115 °C. The same compound had an IC50 against urease of 12.3 ± 0.27 µM.

`O=C(Nc1cccc(Br)c1)c1ccc(CSC(=S)N2CCN(c3ncccc3[N+](=O)[O-])CC2)cc1` [Compound 7e, 4-((3-Bromophenyl)carbamoyl)benzyl 4-(3-nitropyridin-2-yl)piperazine-1-carbodithioate] showed a melting point of 141 to 142 °C. The 50% inhibitory concentration (IC50) at urease was determined as 16.5 ± 0.28 µM.

As to `O=C(CSC(=S)N1CCN(c2ncccc2[N+](=O)[O-])CC1)Nc1ccccc1[N+](=O)[O-]` [Compound 5g, 2-((2-Nitrophenyl)amino)-2-oxoethyl 4-(3-nitropyridin-2-yl)piperazine-1-carbodithioate], the melting point was 149 to 151 °C. Further, at urease, it took 16.84 ± 0.12 µM to reach half-maximal inhibition (IC50).

On to `NC(N)=S` [Thiourea, thiourea, reference compound], for which the half-inhibitory concentration (IC50) on urease (indophenol method, urea substrate 100 mM, pH 8.0, triplicate, read-out: Urease inhibition: IC50 ± SEM) stood at 23 ± 0.03 µM.

On to `O=C(CSC(=S)N1CCN(c2ncccc2[N+](=O)[O-])CC1)Nc1ccc([N+](=O)[O-])cc1` [Compound 5i, 2-((4-Nitrophenyl)amino)-2-oxoethyl 4-(3-nitropyridin-2-yl)piperazine-1-carbodithioate], for which the melting point was in the range of 168 to 169 °C. In addition, the IC50 against urease was found to be 45.41 ± 0.23 µM.

On to `O=C(Nc1cccc([N+](=O)[O-])c1)c1ccc(CSC(=S)N2CCN(c3ncccc3[N+](=O)[O-])CC2)cc1` [Compound 7h, 4-((3-Nitrophenyl)carbamoyl)benzyl 4-(3-nitropyridin-2-yl)piperazine-1-carbodithioate], for which the melting point was in the range of 165 to 166 °C. The 50% inhibitory concentration (IC50) at urease amounted to 47.94 ± 0.25 µM.

For `O=C(Nc1ccccc1Cl)c1ccc(CSC(=S)N2CCN(c3ncccc3[N+](=O)[O-])CC2)cc1` [Compound 7b, 4-((2-Chlorophenyl)carbamoyl)benzyl 4-(3-nitropyridin-2-yl)piperazine-1-carbodithioate], the melting point fell in the range of 109 to 110 °C. The compound also showed a half-inhibitory concentration (IC50) against urease of 32.53 ± 0.31 µM.

Compound `O=C(CSC(=S)N1CCN(c2ncccc2[N+](=O)[O-])CC1)Nc1ccc(Br)cc1` [Compound 5f, 2-((4-Bromophenyl)amino)-2-oxoethyl 4-(3-nitropyridin-2-yl)piperazine-1-carbodithioate] returned a melting point of 136 to 138 °C. This compound displayed an IC50 on urease of 21.3 ± 0.7 µM.

Compound `Cc1ccc(NC(=O)CSC(=S)N2CCN(c3ncccc3[N+](=O)[O-])CC2)cc1` [Compound 5l, 2-Oxo-2-(p-tolylamino)ethyl 4-(3-nitropyridin-2-yl)piperazine-1-carbodithioate] returned an IC50 on urease of 10.6 ± 0.36 µM.

As to `O=C(CSC(=S)N1CCN(c2ncccc2[N+](=O)[O-])CC1)Nc1ccccc1Cl` [Compound 5b, 2-((2-Chlorophenyl)amino)-2-oxoethyl 4-(3-nitropyridin-2-yl)piperazine-1-carbodithioate], the melting point is 114 to 116 °C. This compound had an IC50 against urease of 41.03 ± 0.23 µM.

On to `O=C(Nc1ccccc1)c1ccc(CSC(=S)N2CCN(c3ncccc3[N+](=O)[O-])CC2)cc1` [Compound 7a, 4-(Phenylcarbamoyl)benzyl 4-(3-nitropyridin-2-yl)piperazine-1-carbodithioate], for which the melting point lay in the range of 142 to 143 °C. This compound also displayed an IC50 against urease of 11.7 ± 0.26 µM.

For the origin of these results see paper PMC11333205, “Pyridylpiperazine-based carbodithioates as urease inhibitors: synthesis and biological evaluation” (Frontiers in Chemistry, 2024).
